Drawing on PMC3639963, “A New Class of Small Molecule Inhibitor of BMP Signaling” (PLoS ONE, 2013), this text covers ΔTm for 3 compounds.

What all share (test): DSF thermal shift
What all share (format): binding
Common to all, as to conditions: 10 µM inhibitor; read-out: Tm shift

One assay addresses T1, GUCY2D (Homo sapiens, UniProt Q02846).
T1 construct: purchased Nanosyn (enzymatic panel); SGC in-house recombinant human kinases (DSF panel); Invitrogen (ALK1-6)
The procedure, abridged:
(§1)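 Recombinant human kinase domains at 1–2 µM were melted in a real-time PCR instrument in the presence of 10 µM inhibitor, and thermal stability was monitored.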

A further assay concerns the target T2, MYLK4 (Homo sapiens, UniProt Q86YV6).
T2 construct: purchased Nanosyn (enzymatic panel); SGC in-house recombinant human kinases (DSF panel); Invitrogen (ALK1-6)
The procedure, abridged:
as §1

The target in another assay is T3, MEK6 (Homo sapiens, UniProt P52564).
T3 construct: purchased Nanosyn (enzymatic panel); SGC in-house recombinant human kinases (DSF panel); Invitrogen (ALK1-6)
T3 sequence (P52564 whole entry): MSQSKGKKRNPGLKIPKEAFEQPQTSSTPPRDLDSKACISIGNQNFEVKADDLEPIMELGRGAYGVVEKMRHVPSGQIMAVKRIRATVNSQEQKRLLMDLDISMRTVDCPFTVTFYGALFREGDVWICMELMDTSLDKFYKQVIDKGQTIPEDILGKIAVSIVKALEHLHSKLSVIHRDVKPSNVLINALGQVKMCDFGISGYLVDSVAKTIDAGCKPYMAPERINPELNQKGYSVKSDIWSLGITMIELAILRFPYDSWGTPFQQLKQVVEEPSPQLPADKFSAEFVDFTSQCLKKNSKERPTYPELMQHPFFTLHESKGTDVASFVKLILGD
The procedure, abridged: as §1

The target in a further assay is T4, TNIK (Homo sapiens, UniProt Q9UKE5).
T4 construct: purchased Nanosyn (enzymatic panel); SGC in-house recombinant human kinases (DSF panel); Invitrogen (ALK1-6)
T4 sequence (Q9UKE5 whole entry): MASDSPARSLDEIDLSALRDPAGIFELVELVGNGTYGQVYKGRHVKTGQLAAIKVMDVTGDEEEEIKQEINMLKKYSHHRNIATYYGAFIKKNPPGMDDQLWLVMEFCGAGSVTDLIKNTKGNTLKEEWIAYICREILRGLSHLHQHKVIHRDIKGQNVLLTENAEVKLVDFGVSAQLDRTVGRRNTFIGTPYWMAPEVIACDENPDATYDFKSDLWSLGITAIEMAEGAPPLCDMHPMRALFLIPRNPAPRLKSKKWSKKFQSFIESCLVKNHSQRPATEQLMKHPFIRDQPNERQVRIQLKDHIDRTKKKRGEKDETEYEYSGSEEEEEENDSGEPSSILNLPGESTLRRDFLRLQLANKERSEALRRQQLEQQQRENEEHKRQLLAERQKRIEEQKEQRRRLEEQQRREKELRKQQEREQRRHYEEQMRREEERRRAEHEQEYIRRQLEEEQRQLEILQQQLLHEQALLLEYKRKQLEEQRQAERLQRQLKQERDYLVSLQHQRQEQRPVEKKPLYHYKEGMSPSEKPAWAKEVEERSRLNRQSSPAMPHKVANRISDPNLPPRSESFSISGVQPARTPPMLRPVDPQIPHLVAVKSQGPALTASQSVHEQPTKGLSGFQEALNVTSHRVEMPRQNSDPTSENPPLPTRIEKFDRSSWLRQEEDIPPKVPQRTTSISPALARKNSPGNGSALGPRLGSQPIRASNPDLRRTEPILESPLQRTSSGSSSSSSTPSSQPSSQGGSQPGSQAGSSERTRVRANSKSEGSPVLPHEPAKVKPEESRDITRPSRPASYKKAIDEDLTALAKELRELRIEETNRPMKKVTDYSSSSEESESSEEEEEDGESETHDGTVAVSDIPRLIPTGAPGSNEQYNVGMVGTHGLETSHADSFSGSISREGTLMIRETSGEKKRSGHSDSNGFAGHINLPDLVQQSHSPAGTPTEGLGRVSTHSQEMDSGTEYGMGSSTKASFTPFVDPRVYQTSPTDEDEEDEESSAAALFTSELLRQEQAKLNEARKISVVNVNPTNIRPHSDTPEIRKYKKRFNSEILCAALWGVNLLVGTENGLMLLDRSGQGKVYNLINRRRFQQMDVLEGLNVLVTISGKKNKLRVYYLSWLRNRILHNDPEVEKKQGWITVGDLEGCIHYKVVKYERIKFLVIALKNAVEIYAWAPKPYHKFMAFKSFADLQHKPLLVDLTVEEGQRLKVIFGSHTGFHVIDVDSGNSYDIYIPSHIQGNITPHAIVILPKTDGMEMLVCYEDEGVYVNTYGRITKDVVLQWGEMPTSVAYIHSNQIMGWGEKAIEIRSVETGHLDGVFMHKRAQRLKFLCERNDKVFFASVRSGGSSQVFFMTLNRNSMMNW
The procedure, abridged: as §1

In the next assay the target is T5, CDKL1 (Homo sapiens, UniProt Q00532).
T5 construct: purchased Nanosyn (enzymatic panel); SGC in-house recombinant human kinases (DSF panel); Invitrogen (ALK1-6)
A digest of the protocol:
as §1

In the next assay the target is T6, AAK1 (Homo sapiens, UniProt Q2M2I8).
T6 construct: purchased Nanosyn (enzymatic panel); SGC in-house recombinant human kinases (DSF panel); Invitrogen (ALK1-6)
The procedure, abridged:
as §1

The next assay concerns the target T7, PKD3 (Homo sapiens, UniProt O94806).
T7 construct: purchased Nanosyn (enzymatic panel); SGC in-house recombinant human kinases (DSF panel); Invitrogen (ALK1-6)
The procedure, abridged: as §1

The next assay addresses T8, PCTAIRE1 (Homo sapiens, UniProt Q00536).
T8 construct: purchased Nanosyn (enzymatic panel); SGC in-house recombinant human kinases (DSF panel); Invitrogen (ALK1-6)
A digest of the protocol:
as §1

Another assay concerns the target T9, DYRK2 (Homo sapiens, UniProt Q92630).
T9 construct: purchased Nanosyn (enzymatic panel); SGC in-house recombinant human kinases (DSF panel); Invitrogen (ALK1-6)
T9 sequence (Q92630 1-601): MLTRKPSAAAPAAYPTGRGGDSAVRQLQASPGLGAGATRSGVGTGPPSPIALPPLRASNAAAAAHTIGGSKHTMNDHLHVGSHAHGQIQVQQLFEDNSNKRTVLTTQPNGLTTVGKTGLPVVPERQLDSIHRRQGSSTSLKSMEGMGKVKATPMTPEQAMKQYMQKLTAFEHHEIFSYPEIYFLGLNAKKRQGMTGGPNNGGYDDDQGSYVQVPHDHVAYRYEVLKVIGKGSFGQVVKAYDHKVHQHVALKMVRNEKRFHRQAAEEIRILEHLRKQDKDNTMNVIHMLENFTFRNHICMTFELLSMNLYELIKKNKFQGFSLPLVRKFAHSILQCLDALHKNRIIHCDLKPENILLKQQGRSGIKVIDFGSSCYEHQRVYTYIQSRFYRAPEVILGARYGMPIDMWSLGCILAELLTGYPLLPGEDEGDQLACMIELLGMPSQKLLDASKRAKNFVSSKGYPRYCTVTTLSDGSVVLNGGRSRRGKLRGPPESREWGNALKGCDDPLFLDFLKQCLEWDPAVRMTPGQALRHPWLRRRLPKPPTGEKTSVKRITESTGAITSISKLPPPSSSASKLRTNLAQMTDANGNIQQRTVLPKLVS
The procedure, abridged:
as §1

The next assay concerns the target T10, BRK (Homo sapiens, UniProt Q13882).
T10 construct: purchased Nanosyn (enzymatic panel); SGC in-house recombinant human kinases (DSF panel); Invitrogen (ALK1-6)
A digest of the protocol:
as §1

Another assay deals with T11, ALK1 (Homo sapiens, UniProt P37023).
T11 construct: purchased Nanosyn (enzymatic panel); SGC in-house recombinant human kinases (DSF panel); Invitrogen (ALK1-6)
T11 sequence (P37023 22-503): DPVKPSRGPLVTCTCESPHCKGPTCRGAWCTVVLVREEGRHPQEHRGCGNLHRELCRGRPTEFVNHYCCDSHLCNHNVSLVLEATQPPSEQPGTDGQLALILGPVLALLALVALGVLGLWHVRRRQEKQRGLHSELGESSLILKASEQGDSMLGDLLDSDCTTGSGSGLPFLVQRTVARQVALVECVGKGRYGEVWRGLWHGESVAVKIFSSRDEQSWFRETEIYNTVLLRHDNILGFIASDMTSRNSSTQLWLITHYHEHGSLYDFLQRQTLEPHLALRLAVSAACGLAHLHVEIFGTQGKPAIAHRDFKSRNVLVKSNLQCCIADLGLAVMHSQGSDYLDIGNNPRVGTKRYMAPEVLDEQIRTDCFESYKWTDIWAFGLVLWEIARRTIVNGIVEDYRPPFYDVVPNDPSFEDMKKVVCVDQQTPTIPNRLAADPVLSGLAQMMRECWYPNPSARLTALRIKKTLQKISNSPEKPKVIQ
The procedure, abridged: as §1

The target of another assay is T12, STK33 (Homo sapiens, UniProt Q9BYT3).
T12 construct: purchased Nanosyn (enzymatic panel); SGC in-house recombinant human kinases (DSF panel); Invitrogen (ALK1-6)
T12 sequence (Q9BYT3 whole entry): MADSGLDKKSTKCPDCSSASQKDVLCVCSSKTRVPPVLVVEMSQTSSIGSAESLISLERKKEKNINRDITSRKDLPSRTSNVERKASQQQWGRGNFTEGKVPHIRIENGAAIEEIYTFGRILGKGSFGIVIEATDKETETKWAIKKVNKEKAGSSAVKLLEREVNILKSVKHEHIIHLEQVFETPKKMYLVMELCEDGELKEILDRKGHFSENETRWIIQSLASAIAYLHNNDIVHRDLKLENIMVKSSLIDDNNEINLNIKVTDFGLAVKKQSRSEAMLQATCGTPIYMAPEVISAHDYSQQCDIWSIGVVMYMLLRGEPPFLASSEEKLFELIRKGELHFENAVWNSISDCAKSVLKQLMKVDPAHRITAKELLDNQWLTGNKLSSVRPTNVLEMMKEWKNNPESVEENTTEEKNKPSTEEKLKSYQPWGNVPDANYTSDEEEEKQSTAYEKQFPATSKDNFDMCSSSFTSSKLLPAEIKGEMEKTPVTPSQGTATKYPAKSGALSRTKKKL
The procedure, abridged:
as §1

The target of a further assay is T13, TTK (Homo sapiens, UniProt P33981).
T13 construct: purchased Nanosyn (enzymatic panel); SGC in-house recombinant human kinases (DSF panel); Invitrogen (ALK1-6)
T13 sequence (P33981 1-857): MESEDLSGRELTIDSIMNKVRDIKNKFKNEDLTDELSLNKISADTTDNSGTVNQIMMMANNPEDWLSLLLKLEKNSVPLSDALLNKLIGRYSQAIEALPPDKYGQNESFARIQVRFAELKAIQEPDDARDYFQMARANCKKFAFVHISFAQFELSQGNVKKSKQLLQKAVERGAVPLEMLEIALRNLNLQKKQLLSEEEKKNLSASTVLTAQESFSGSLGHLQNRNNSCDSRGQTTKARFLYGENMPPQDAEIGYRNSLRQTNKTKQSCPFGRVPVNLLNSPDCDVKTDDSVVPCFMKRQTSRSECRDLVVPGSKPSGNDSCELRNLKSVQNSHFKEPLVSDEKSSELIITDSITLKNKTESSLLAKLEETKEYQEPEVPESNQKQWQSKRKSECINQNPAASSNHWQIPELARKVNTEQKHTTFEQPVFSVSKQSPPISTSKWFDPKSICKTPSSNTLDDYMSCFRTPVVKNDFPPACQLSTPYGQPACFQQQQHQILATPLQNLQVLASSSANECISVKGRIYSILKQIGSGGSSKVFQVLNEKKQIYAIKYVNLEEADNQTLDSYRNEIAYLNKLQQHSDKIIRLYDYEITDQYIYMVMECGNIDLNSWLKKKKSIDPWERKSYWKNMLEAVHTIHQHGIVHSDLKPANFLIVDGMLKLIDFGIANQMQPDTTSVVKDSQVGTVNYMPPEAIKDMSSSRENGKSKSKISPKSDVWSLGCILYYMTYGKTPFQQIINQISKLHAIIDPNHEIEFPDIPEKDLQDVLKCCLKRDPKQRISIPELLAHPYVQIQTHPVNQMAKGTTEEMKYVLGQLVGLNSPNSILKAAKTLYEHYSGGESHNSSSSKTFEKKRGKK
The procedure, abridged:
as §1

The target of another assay is T14, ALK5 (Homo sapiens, UniProt P36897).
T14 construct: purchased Nanosyn (enzymatic panel); SGC in-house recombinant human kinases (DSF panel); Invitrogen (ALK1-6)
T14 sequence (P36897 34-503): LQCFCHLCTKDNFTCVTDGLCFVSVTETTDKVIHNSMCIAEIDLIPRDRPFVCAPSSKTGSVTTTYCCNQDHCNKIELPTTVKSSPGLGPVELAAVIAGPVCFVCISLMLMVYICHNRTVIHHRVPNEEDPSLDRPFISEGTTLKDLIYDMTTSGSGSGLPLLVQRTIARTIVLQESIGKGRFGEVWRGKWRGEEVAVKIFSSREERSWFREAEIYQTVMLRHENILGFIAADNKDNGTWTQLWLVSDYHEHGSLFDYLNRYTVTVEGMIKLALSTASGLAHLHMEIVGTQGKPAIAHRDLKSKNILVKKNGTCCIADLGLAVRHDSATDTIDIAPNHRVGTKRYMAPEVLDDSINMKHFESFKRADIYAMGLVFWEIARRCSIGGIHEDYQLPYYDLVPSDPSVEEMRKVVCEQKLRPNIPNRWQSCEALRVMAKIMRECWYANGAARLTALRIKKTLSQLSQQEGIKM
A digest of the protocol: as §1

Another assay deals with T15, NDR1 (Homo sapiens, UniProt Q15208).
T15 construct: purchased Nanosyn (enzymatic panel); SGC in-house recombinant human kinases (DSF panel); Invitrogen (ALK1-6)
The procedure, abridged: as §1

Another assay concerns the target T16, BMPRII (Homo sapiens, UniProt Q13873).
T16 construct: purchased Nanosyn (enzymatic panel); SGC in-house recombinant human kinases (DSF panel); Invitrogen (ALK1-6)
A digest of the protocol: as §1

Another assay addresses T17, DRAK1 (Homo sapiens, UniProt Q9UEE5).
T17 construct: purchased Nanosyn (enzymatic panel); SGC in-house recombinant human kinases (DSF panel); Invitrogen (ALK1-6)
A digest of the protocol: as §1

A further assay has as its target T18, PKD2 (Homo sapiens, UniProt Q9BZL6).
T18 construct: purchased Nanosyn (enzymatic panel); SGC in-house recombinant human kinases (DSF panel); Invitrogen (ALK1-6)
The procedure, abridged: as §1

A further assay deals with T19, PKCη (Homo sapiens, UniProt P24723).
T19 construct: purchased Nanosyn (enzymatic panel); SGC in-house recombinant human kinases (DSF panel); Invitrogen (ALK1-6)
A digest of the protocol: as §1

The next assay addresses T20, CDK8 (Homo sapiens, UniProt P49336).
T20 construct: purchased Nanosyn (enzymatic panel); SGC in-house recombinant human kinases (DSF panel); Invitrogen (ALK1-6)
The procedure, abridged:
as §1

The target of the next assay is T21, DCAMKL1 (Homo sapiens, UniProt O15075).
T21 construct: purchased Nanosyn (enzymatic panel); SGC in-house recombinant human kinases (DSF panel); Invitrogen (ALK1-6)
The procedure, abridged: as §1

Another assay concerns the target T22, RSK4 (Homo sapiens, UniProt Q9UK32).
T22 construct: purchased Nanosyn (enzymatic panel); SGC in-house recombinant human kinases (DSF panel); Invitrogen (ALK1-6)
A digest of the protocol: as §1

T17 sequence (Q9UEE5 whole entry): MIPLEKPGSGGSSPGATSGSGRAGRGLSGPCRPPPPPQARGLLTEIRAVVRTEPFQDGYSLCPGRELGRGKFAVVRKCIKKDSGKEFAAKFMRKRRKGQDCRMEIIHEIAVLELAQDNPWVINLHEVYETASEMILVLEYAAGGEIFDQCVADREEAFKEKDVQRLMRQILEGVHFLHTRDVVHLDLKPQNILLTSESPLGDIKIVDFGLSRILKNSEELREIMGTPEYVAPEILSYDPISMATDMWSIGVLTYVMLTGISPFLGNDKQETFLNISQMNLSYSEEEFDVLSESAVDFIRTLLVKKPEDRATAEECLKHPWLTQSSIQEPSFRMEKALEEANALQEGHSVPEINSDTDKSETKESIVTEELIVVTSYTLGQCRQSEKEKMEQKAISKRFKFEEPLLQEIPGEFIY
T16 sequence (Q13873 27-1038): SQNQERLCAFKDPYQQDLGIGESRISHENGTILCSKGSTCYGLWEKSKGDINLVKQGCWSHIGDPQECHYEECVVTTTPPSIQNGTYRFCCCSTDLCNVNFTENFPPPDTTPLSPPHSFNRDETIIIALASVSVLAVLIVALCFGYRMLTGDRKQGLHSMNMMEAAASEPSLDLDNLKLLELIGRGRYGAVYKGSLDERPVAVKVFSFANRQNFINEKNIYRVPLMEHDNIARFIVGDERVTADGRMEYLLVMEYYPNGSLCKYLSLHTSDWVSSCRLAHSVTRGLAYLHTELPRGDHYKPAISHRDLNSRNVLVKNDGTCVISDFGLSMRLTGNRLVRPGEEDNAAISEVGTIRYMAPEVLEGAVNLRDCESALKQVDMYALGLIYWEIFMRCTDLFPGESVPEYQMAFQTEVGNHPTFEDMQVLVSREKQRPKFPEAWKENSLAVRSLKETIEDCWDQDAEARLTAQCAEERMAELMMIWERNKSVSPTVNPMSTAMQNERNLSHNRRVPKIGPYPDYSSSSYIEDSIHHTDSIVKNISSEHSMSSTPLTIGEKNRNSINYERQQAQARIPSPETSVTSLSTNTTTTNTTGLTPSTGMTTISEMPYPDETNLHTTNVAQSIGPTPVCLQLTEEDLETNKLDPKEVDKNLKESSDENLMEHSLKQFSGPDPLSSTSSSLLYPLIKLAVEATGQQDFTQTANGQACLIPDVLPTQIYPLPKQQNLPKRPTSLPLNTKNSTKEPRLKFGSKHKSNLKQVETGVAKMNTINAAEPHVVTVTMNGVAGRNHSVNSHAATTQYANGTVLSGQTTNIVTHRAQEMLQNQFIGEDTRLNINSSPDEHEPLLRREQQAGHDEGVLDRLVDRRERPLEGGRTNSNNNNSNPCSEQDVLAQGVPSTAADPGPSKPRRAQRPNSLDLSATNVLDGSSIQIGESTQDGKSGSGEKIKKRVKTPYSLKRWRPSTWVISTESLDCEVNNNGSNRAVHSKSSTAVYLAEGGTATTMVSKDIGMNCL
T10 sequence (Q13882 whole entry): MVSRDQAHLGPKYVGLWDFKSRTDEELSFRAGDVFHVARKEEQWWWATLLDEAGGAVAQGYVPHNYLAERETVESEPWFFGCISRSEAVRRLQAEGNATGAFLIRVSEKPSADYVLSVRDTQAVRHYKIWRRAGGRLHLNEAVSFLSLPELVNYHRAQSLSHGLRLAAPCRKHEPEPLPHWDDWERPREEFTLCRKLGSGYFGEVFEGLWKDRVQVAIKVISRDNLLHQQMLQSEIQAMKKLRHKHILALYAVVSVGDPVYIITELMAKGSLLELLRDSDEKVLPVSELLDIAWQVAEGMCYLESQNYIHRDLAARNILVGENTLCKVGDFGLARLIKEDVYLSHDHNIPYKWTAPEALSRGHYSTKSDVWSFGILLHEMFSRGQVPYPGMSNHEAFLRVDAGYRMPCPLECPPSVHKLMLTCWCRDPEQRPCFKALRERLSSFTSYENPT

For the compound `c1ccc2c(-c3cnn4cc(-c5ccc(N6CCNCC6)cc5)cnc34)ccnc2c1` [LDN-193189], the ΔTm at 10 µM at GUCY2D is -0.2 °C.

On to `COc1cc(-c2cc(-c3cccc(O)c3)cnc2N)cc(OC)c1OC` [K02288, 3-[6-amino-5-(3,4,5-trimethoxy-phenyl)-pyridin-3-yl]-phenol], for which the ΔTm at 10 µM on MYLK4 amounted to 1 °C; at MEK6, 1.9 °C; at TNIK it was 6.1 °C; on CDKL1 it was 0 °C; at AAK1 it was 0.5 °C; at PKD3 it was 1.2 °C. For the same compound, the ΔTm at 10 µM is -1.8 °C at PCTAIRE1; 0.3 °C on DYRK2; 0 °C on BRK; 14.2 °C at ALK1; 1.1 °C on STK33; 1.1 °C on TTK. For the same compound, the ΔTm at 10 µM was 11.6 °C on ALK5; 0.1 °C on NDR1; 3.5 °C at BMPRII; 1 °C at DRAK1; 0.2 °C at PKD2; 1.2 °C at PKCη. Besides, the ΔTm at 10 µM at CDK8 stood at 0.1 °C; at DCAMKL1, 0.1 °C; at RSK4 it was 1.4 °C.

For `c1cc(-c2cnn3cc(-c4ccc(OCCN5CCCCC5)cc4)cnc23)ccn1` [Dorsomorphin], the ΔTm at 10 µM is 4.3 °C at MYLK4; 0.1 °C on MEK6; 4.2 °C on TNIK; 2 °C on CDKL1; 3.8 °C at AAK1; 0.9 °C at PKD3. The ΔTm at 10 µM is 4.7 °C at PCTAIRE1; 5.1 °C on DYRK2; 2.8 °C at BRK; 10.6 °C at ALK1; 4.2 °C at STK33; 1 °C on TTK. The ΔTm at 10 µM on ALK5 is 7.4 °C; at NDR1 it was 2.8 °C; at BMPRII, 1.5 °C; on DRAK1, 9 °C; on PKD2, 0.1 °C; at PKCη, 0.9 °C. Besides, the ΔTm at 10 µM at CDK8 was 0.5 °C; at GUCY2D it was -0.1 °C; at DCAMKL1, 0.3 °C; on RSK4 it was 2.7 °C.
